Biological target: T1, Human M4 (Homo sapiens, UniProt P08173)
T1 construct: Human or rat M4 cDNA, along with the chimeric G protein Gq,5, were transfected into Chinese hamster ovary (CHO-K1) cells; expressed in transfected cells; host or cells: CHO-K1 (M4/Gqi5/CHO)
T1 sequence (P08173 1-479): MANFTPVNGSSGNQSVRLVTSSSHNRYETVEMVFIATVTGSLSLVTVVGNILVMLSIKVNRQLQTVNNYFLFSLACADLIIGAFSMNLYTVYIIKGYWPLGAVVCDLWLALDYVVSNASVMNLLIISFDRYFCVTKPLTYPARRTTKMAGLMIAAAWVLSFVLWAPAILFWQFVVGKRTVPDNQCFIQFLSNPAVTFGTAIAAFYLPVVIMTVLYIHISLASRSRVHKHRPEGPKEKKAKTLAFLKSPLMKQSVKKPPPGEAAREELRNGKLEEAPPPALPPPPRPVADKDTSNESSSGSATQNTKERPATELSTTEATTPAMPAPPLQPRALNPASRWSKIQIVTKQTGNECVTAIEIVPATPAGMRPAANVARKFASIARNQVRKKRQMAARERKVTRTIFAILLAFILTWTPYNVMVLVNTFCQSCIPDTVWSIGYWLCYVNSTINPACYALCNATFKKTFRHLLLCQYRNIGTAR
Experiment: mAChR M4 cell-based functional assay (calcium flux, decrease of EC80 acetylcholine response)
Details: for Human M4 Emin: % ACh maximum at 30 μM; for IC50: CHO-K1 cells with human M4 and Gqi5, EC80 acetylcholine
Protocol: Human or rat M4 cDNA, along with the chimeric G protein Gq,5, were transfected into Chinese hamster ovary (CHO-K1) cells purchased from the American Type Culture Collection using Lipofectamine2000. M4/Gqi5/CHO cells were grown in Ham's F-12 medium containing 10% heat-inactivated fetal bovine serum (FBS), 20 mM HEPES, 500 μg/mL G^418 sulfate, and 200 μg/mL Hygromycin B.
For high throughput measurement of agonist-evoked increases in intracellular calcium, CHO-K1 cells stably expressing muscarinic receptors were plated in growth medium lacking G418 and hygromycin at 15,000 cells/20 μL/well in Greiner 384-well black-walled, tissue culture (TC)-treated, clear-bottom plates (VWR). Cells were incubated overnight at 37° C. and 5% CO2. The next day, cells were washed using an ELX 405 (BioTek) with assay buffer; the final volume was then aspirated to 20 μL. Next, 20 μL of a 2.3 μM stock of Fluo-4/acetoxymethyl ester (Invitrogen, Carlsbad, Calif.), prepared as a 2.3 mM stock in DMSO and mixed in a 1:1 ratio with 10% (w/v) Pluronic F-127 and diluted in assay buffer, was added to the wells and the cell plates were incubated for 50 min at 37° C. and 5% CO2. Dye was removed by washing with the ELX 405 and the final volume was aspirated to 20 μL. Compound master plates were formatted in a 10 point concentration-response curve (CRC) format (1:3 dilutions) in 100% DMSO with a starting concentration of 10 or 1 mM using a BRAVO liquid handler (Agilent). Test compound CRCs were then transferred to daughter plates (240 nL) using the Echo acoustic plate reformatter (Labcyte, Sunnyvale, Calif.) and then diluted into assay buffer (40 μL) to a 2× stock using a Thermo Fisher Combi (Thermo Fisher Scientific, Waltham, Mass.).
Calcium flux was measured using the Functional Drug Screening System (FDSS) 6000 or 7000 (Hamamatsu Corporation, Tokyo, Japan) as an increase in the fluorescent static ratio. Compounds were applied to cells (20 μL, 2×) using the automated system of the FDSS at 2 seconds into the protocol and the data were collected at 1 Hz. At 143 s, 10 μL of an EC20 concentration of the muscarinic receptor agonist acetylcholine was added (5×), followed by the addition of […] of an EC80 concentration of acetylcholine at the 268 s time point (5×). Agonist activity was analyzed as a concentration-dependent increase in calcium mobilization upon compound addition. Positive allosteric modulator activity was analyzed as a concentration-dependent increase in the EC2o acetylcholine response. Antagonist activity was analyzed as a concentration-dependent decrease in the EC80 acetylcholine response; for the purposes of the tables herein, an IC50 (inhibitory concentration 50) was calculated as a concentration-dependent decrease of the response elicited by an EC80 concentration of acetylcholine. Concentration-response curves were generated using a four-parameter logistical equation in XLFit curve fitting software (IDBS, Bridgewater, N.J.) for Excel (Microsoft, Redmond, Wash.) or Prism (GraphPad Software, Inc., San Diego, Calif.) or the Dotmatics software platform (Dotmatics, Bishop's Stortford, UK).
Compounds were synthesized as described above. Activity (IC50 and Emin) was determined in the mAChR M4 cell-based functional assay as described above and the data are shown in Table 2.

SMILES | Human M4 Emin | IC50
[2H]C([2H])([C@H]1COCCO1)N1C[C@H]2C[C@H](Nc3ccc(-c4cc(F)cc(F)c4F)nn3)C[C@H]2C1 [Compound 39, (3aR,5s,6aS)-2-(((S)-1,4-dioxan-2-yl)methyl-d2)-N-(6-(2,3,5-trifluorophenyl)pyridazin-3-yl)octahydrocyclopenta[c]pyrrol-5-amine] | 3% | 0.56 nM
[2H]C([2H])([C@H]1CCCCO1)N1C[C@H]2C[C@H](Nc3ccc(-c4cc(F)cc(F)c4F)nn3)C[C@H]2C1 [Compound 40, (3aR,5s,6aS)-2-(((R)-tetrahydro-2H-pyran-2-yl)methyl-d2)-N-(6-(2,3,5-trifluorophenyl)pyridazin-3-yl)octahydrocyclopenta[c]pyrrol-5-amine] | 3% | 1.48 nM
[2H]C([2H])([C@H]1CCOC1)N1C[C@H]2C[C@H](Nc3ccc(-c4cc(F)cc(F)c4F)nn3)C[C@H]2C1 [Compound 41, (3aR,5s,6aS)-2-(((R)-tetrahydrofuran-3-yl)methyl-d2)-N-(6-(2,3,5-trifluorophenyl)pyridazin-3-yl)octahydrocyclopenta[c]pyrrol-5-amine] | 3% | 64.6 nM
[2H]C([2H])([C@@H]1COCCO1)N1C[C@H]2C[C@H](Nc3ccc(-c4cc(F)cc(F)c4F)nn3)C[C@H]2C1 [Compound 42, (3aR,5s,6aS)-2-(((R)-1,4-dioxan-2-yl)methyl-d2)-N-(6-(2,3,5-trifluorophenyl)pyridazin-3-yl)octahydrocyclopenta[c]pyrrol-5-amine] | 3% | 35 nM
[2H]C([2H])([C@@H]1CCCCO1)N1C[C@H]2C[C@H](Nc3ccc(-c4cc(F)cc(F)c4F)nn3)C[C@H]2C1 [Compound 43, (3aR,5s,6aS)-2-(((S)-tetrahydro-2H-pyran-2-yl)methyl-d2)-N-(6-(2,3,5-trifluorophenyl)pyridazin-3-yl)octahydrocyclopenta[c]pyrrol-5-amine] | 4% | 0.95 nM
[2H]C([2H])([C@@H]1CCOC1)N1C[C@H]2C[C@H](Nc3ccc(-c4cc(F)cc(F)c4F)nn3)C[C@H]2C1 [Compound 44, (3aR,5s,6aS)-2-(((S)-tetrahydrofuran-3-yl)methyl-d2)-N-(6-(2,3,5-trifluorophenyl)pyridazin-3-yl)octahydrocyclopenta[c]pyrrol-5-amine] | 2% | 31.3 nM
[2H]C(C)(N1C[C@H]2C[C@H](Nc3ccc(-c4cc(F)cc(F)c4F)nn3)C[C@H]2C1)C1(C)CCOCC1 (stereo partly drawn) [Compound 45, (3aR,5s,6aS)-2-(1-(4-methyltetrahydro-2H-pyran-4-yl)ethyl-1-d)-N-(6-(2,3,5-trifluorophenyl)pyridazin-3-yl)octahydrocyclopenta[c]pyrrol-5-amine] | 1% | 141 nM
CC(N1C[C@H]2C[C@H](Nc3ccc(-c4cc(F)cc(F)c4F)nn3)C[C@H]2C1)C1(C)CCOCC1 (stereo partly drawn) [Compound 46, (3aR,5s,6aS)-2-(1-(4-methyltetrahydro-2H-pyran-4-yl)ethyl)-N-(6-(2,3,5-trifluorophenyl)pyridazin-3-yl)octahydrocyclopenta[c]pyrrol-5-amine] | 2% | 58.9 nM
[2H]C([2H])(N1C[C@H]2C[C@H](Nc3ccc(-c4cc(F)cc(F)c4F)nn3)C[C@H]2C1)C1(OC)CCCOC1 (stereo partly drawn) [Compound 48, (3aR,5s,6aS)-2-((3-methoxytetrahydro-2H-pyran-3-yl)methyl-d2)-N-(6-(2,3,5-trifluorophenyl)pyridazin-3-yl)octahydrocyclopenta[c]pyrrol-5-amine] | 2% | 184 nM
[2H]C([2H])(N1C[C@H]2C[C@H](Nc3ccc(-c4cc(F)cc(F)c4F)nn3)C[C@H]2C1)C1(C)CCCOC1 (stereo partly drawn) [Compound 49, (3aR,5s,6aS)-2-((3-methyltetrahydro-2H-pyran-3-yl)methyl-d2)-N-(6-(2,3,5-trifluorophenyl)pyridazin-3-yl)octahydrocyclopenta[c]pyrrol-5-amine] | 2% | 25.8 nM
[2H]C([2H])(N1C[C@H]2C[C@H](Nc3ccc(-c4cc(F)cc(F)c4F)nn3)C[C@H]2C1)C1(C)CCCCO1 (stereo partly drawn) [Compound 50, (3aR,5s,6aS)-2-((2-methyltetrahydro-2H-pyran-2-yl)methyl-d2)-N-(6-(2,3,5-trifluorophenyl)pyridazin-3-yl)octahydrocyclopenta[c]pyrrol-5-amine] | 2% | 6.89 nM
CC(C)(C)CCN1C[C@H]2C[C@H](Nc3ccc(-c4cc(F)cc(F)c4F)nn3)C[C@H]2C1 [Compound 51, (3aR,5s,6aS)-2-(3,3-dimethylbutyl)-N-(6-(2,3,5-trifluorophenyl)pyridazin-3-yl)octahydrocyclopenta[c]pyrrol-5-amine] | 3% | 32 nM
CC1(O)CC(CN2C[C@H]3C[C@H](Nc4ccc(-c5cc(F)cc(F)c5F)nn4)C[C@H]3C2)C1 (stereo partly drawn) [Compound 52] | 3% | 17 nM
CC(C)(C)OCCN1C[C@H]2C[C@H](Nc3ccc(-c4cc(F)cc(F)c4F)nn3)C[C@H]2C1 [Compound 53, (3aR,5s,6aS)-2-(2-(tert-butoxy)ethyl)-N-(6-(2,3,5-trifluorophenyl)pyridazin-3-yl)octahydrocyclopenta[c]pyrrol-5-amine] | 3% | 2.6 nM
CC(C)(O)CCN1C[C@H]2C[C@H](Nc3ccc(-c4cc(F)cc(F)c4F)nn3)C[C@H]2C1 [Compound 54, 2-methyl-4-((3aR,5s,6aS)-5-((6-(2,3,5-trifluorophenyl)pyridazin-3-yl)amino)hexahydrocyclopenta[c]pyrrol-2(1H)-yl)butan-2-ol] | 5% | 160 nM
[2H]C([2H])(C1CC(C)(O)C1)N1C[C@H]2C[C@H](Nc3ccc(-c4cc(F)cc(F)c4F)nn3)C[C@H]2C1 (stereo partly drawn) [Compound 55, 1-methyl-3-(((3aR,5s,6aS)-5-((6-(2,3,5-trifluorophenyl)pyridazin-3-yl)amino)hexahydrocyclopenta[c]pyrrol-2(1H)-yl)methyl-d2)cyclobutan-1-ol] | 5% | 15 nM
[2H]C([2H])(COC(C)(C)C)N1C[C@H]2C[C@H](Nc3ccc(-c4cc(F)cc(F)c4F)nn3)C[C@H]2C1 [Compound 56, (3aR,5s,6aS)-2-(2-(tert-butoxy)ethyl-1,1-d2)-N-(6-(2,3,5-trifluorophenyl)pyridazin-3-yl)octahydrocyclopenta[c]pyrrol-5-amine] | 3% | 3 nM
Fc1cc(F)c(F)c(-c2ccc(N[C@H]3C[C@@H]4CN(CC5CC(F)(F)C5)C[C@@H]4C3)nn2)c1 [Compound 57, (3aR,5s,6aS)-2-((3,3-difluorocyclobutyl)methyl)-N-(6-(2,3,5-trifluorophenyl)pyridazin-3-yl)octahydrocyclopenta[c]pyrrol-5-amine] | 3% | 25 nM
